Key:
Type in all cases: cell-based
HepG2 cells [1] = assay: Effect of CYP inhibitors on drug cytotoxicity (resazurin reduction), HepG2; conditions: HepG2, 24 h, drug concentrations as given in the source; for change of resazurin reduction with ketoconazole vs drug alone: 1 μM ketoconazole; for change of resazurin reduction with ABT vs drug alone: 1000 μM ABT; for change of resazurin reduction with quinidine vs drug alone: 10 μM quinidine
Method: Analogously to the studies performed in the neuronal model, the impact of the CYP-mediated metabolism on the cytotoxicity of the tested drugs was also evaluated, in HepG2 cells, 24 h after exposure to the drugs in the presence or absence of different CYP inhibitors: 1000 μM ABT, 10 μM quinidine or 1 μM ketoconazole.
(§1) CYP inhibition assay was used to evaluate the drugs’ potential to inhibit drug-metabolizing enzymes. Accordingly, SH-SY5Y and HepG2 cells were seeded in 96-well cell culture plates and pre-incubated with 1000 µM ABT—a non-isoform specific CYP450 inhibitor, 10 µM quinidine—a CYP2D6 inhibitor or 1 µM ketoconazole—a CYP3A4 inhibitor. After 1 h, the drugs (0–500 µM) were co-incubated with the inhibitors for 24 h, at 37 °C, in a 5% CO2–95% air atmosphere. The drugs’ cytotoxicity was then assessed through the neutral red uptake assay for differentiated SH-SY5Y cells, and through the resazurin reduction assay for HepG2 cells, and the results were expressed as percentage of control cells. At least four independent experiments were performed, in triplicate.

[2] = system: differentiated SH-SY5Y cells; assay: Effect of CYP inhibitors on drug cytotoxicity (neutral red uptake), differentiated SH-SY5Y; conditions: 24 h, drug concentrations as given in the source; for change of neutral red uptake with ketoconazole vs drug alone: 10 μM ketoconazole (CYP3A4 inhibitor); for change of neutral red uptake with quinidine vs drug alone: 10 μM quinidine (CYP2D6 inhibitor); for change of neutral red uptake with ABT vs drug alone: 1000 μM ABT (non-selective CYP inhibitor)
Method: Differentiated SH-SY5Y cells were incubated with the drugs in the presence or absence of different CYP inhibitors: 1000 μM ABT, a non-selective CYP inhibitor, 10 μM quinidine, a specific CYP2D6 inhibitor, or 10 μM ketoconazole, a specific CYP3A4 inhibitor.
as §1

HepG2 cells [3] = assay: Neutral red uptake cytotoxicity assay, HepG2; conditions: HepG2, 24 h; for Top (maximal effect): maximum cell death of fitted curve; for EC50: Homo sapiens, cell death curves 0–2000 µM, read-out: EC50 (half-maximum-effect concentrations)
Method: HepG2 cells were acquired from the American Type Culture Collection (Manassas, VA, USA). Cells were cultured in 75 cm^2 flasks using DMEM—high glucose supplemented with a 10% heat inactivated FBS and 1% penicillin/streptomycin mixture, and maintained in a 5% CO2–95% air atmosphere, at 37 °C, until 80% confluence. Cells were routinely subcultured using trypsin-EDTA and, to avoid phenotypic alterations, used between passages 16 and 22. In all experiments, the cells were seeded at a density of 250,000 cells/cm^2 and used 24 h after seeding.
(§2) Neutral red uptake and resazurin reduction assays were performed after exposure of differentiated SH-SY5Y and HepG2 cells to the drugs under study. To obtain a concentration–response curve, a broad concentration range (0–2000 µM) was investigated, and cytotoxicity was evaluated 24 h after exposure in 96-well cell culture plates. As previously described, neutral red uptake assay is based on the incorporation of neutral red dye into the lysosomes of viable cells and the amount of dye incorporated represents the cells’ lysosomal functionality, and resazurin reduction assay is based on the irreversible reduction of resazurin dye to the fluorescent resorufin product by metabolically active cells.
(§3) Briefly, 24 h after being exposed to different concentrations of the compounds, differentiated SH-SY5Y cells were incubated with either neutral red (50 µg/mL) or resazurin (10 µg/mL) solutions for 90 min, at 37 °C, in a 5% CO2–95% air atmosphere. For HepG2 cells, 24 h after the exposure to the tested drugs, the cells were incubated with either neutral red (50 µg/mL) or resazurin (10 µg/mL) solutions for 45 and 60 min, respectively, at 37 °C, in a 5% CO2–95% air atmosphere.
(§4) In the neutral red uptake assay, at the end of the incubation period, the cell culture medium was removed and a solution of absolute ethyl alcohol/distilled water (1:1) with 5% acetic acid was added to extract the dye absorbed only by the viable cells. The absorbance was measured at 540 nm in a multi-well plate reader (PowerWaveX BioTek Instruments, Winooski, VT, USA). In the resazurin assay, at the end of the incubation period, the fluorescence was measured at 530 nm excitation and 590 nm emission wavelengths in a multi-well plate reader (PowerWaveX BioTek Instruments, Winooski, VT, USA).
(§5) The results were expressed as a percentage of control cells. At least four independent experiments were performed, in triplicate. For differentiated SH-SY5Y cells, the neutral red uptake assay was identified as the most sensitive assay and, therefore, used for the subsequent experiments. On the other hand, for HepG2 cells, the resazurin reduction assay was identified as the most sensitive assay and, therefore, used for the subsequent experiments.

[4] = system: differentiated SH-SY5Y cells; assay: Resazurin reduction cytotoxicity assay, differentiated SH-SY5Y; conditions: 24 h; for Top (maximal effect): maximum cell death of fitted curve; for EC50: Homo sapiens, cell death curves 0–1500 µM, read-out: EC50 (half-maximum-effect concentration)
Method: SH-SY5Y cells were acquired from the American Type Culture Collection (Manassas, VA, USA). Cells were cultured in 25 cm^2 flasks using DMEM—high glucose supplemented with 10% heat-inactivated FBS, 1% MEM non-essential amino acids and 1% penicillin/streptomycin mixture, and maintained in a 5% CO2–95% air atmosphere, at 37 °C, until 80% confluence. Cells were routinely subcultured using trypsin-EDTA and, to avoid phenotypic alterations, were always used between passages 23 and 29. In all experiments, the cells were seeded at a density of 25,000 cells/cm^2. As previously described, to achieve a dopaminergic neuronal phenotype, the cells were seeded in a complete DMEM medium containing 10 μM retinoic acid and, after 3 days, 80 nM TPA was added to the cultures for another 3 days.
as §2, §3, §4, §5

[5] = system: differentiated SH-SY5Y cells; assay: Effect of MAO inhibitors on drug cytotoxicity (neutral red uptake), differentiated SH-SY5Y; conditions: 24 h; for change of drug cytotoxicity with rasagiline (neutral red uptake): 1 µM rasagiline (MAO-B inhibitor), drug concentrations as given in the source
Method: MAO inhibition was used to elucidate the impact of MAO-A and MAO-B in the cytotoxicity of the tested drugs. […] The drugs’ cytotoxicity was then assessed through the neutral red uptake assay and the results were expressed as percentage of control cells. At least four independent experiments were performed, in triplicate.

[6] = 1 µM clorgyline (MAO-A inhibitor), drug 50-250 µM

Row | Structure (SMILES) | change of resazurin reduction with ketoconazole vs drug alone (HepG2 cells [1]) | change of resazurin reduction with ABT vs drug alone (HepG2 cells [1]) | change of neutral red uptake with ketoconazole vs drug alone [2] | change of neutral red uptake with quinidine vs drug alone [2] | Bottom (baseline) (HepG2 cells [3]) | Hill Slope (HepG2 cells [3]) | Top (maximal effect) (HepG2 cells [3]) | EC50 (HepG2 cells [3]) | Bottom (baseline) [4] | Hill Slope [4] | Top (maximal effect) [4] | EC50 [4] | change of drug cytotoxicity with rasagiline (neutral red uptake) [5] | change of resazurin reduction with quinidine vs drug alone (HepG2 cells [1]) | change of neutral red uptake with ABT vs drug alone [2] | change of drug cytotoxicity with clorgyline (neutral red uptake) [5, 6] | cytotoxicity (in words) (HepG2 cells [3]; 0–2000 µM) | cytotoxic effect (in words) ([4]; 0–1500 µM) | change of drug cytotoxicity with clorgyline (neutral red uptake) ([5]; 1 µM clorgyline, 500 µM drug concentration)
1 | COc1cc(CCN)c(OC)cc1Br [2C-B, 4-Bromo-2,5-dimethoxy-β-phenethylamine] | significant decrease in the cells’ metabolic capacity | small but significant decrease in resazurin reduction | small but significant decrease in neutral red uptake | significant decrease in the neutral red uptake | 5.433 | 5.413 | 95.01 | 257 µM | 7.210 | 1.670 | 83.95 | 225 µM | significantly increased the cytotoxicity | – | – | – | – | – | –
2 | COc1cc([N+](=O)[O-])c(OC)cc1CCNCc1ccccc1OC [25N-NBOMe, 4-Nitro-2-dimethoxy-N-(2-methoxybenzyl)-β-phenethylamine] | no significant changes in resazurin reduction | small but significant decrease in resazurin reduction | small but significant decrease in neutral red uptake | significant decrease in the neutral red uptake | 7.254 | 6.518 | 94.13 | 115 µM | 0.9223 | 4.692 | 80.10 | 154 µM | significant increase in cell viability | no significant changes in resazurin reduction | significant decrease in neutral red uptake | significantly increased the cytotoxicity | – | – | –
3 | COc1cc(CCN)cc(OC)c1OC.Cl [Mescaline, 3,4,5-Trimethoxyphenethylamine hydrochloride] | No significant changes | No significant changes | small but significant decrease in neutral red uptake | significant decrease in the neutral red uptake | – | – | – | – | – | – | – | – | – | No significant changes | – | significantly increased the cytotoxicity | not causing a significant cytotoxicity | no significant cytotoxic effects | –
4 | COc1cc([N+](=O)[O-])c(OC)cc1CCN [2C-N, 2,5-dimethoxy-4-nitrophenethylamine] | significant increase in the metabolic capacity of cells | – | – | significant decrease in the neutral red uptake | 7.328 | 4.340 | ≈100 | 960 µM | 4.440 | 1.627 | ≈100 | 832 µM | significantly increased the cytotoxicity | significant increase in the metabolic capacity of cells | significant increase in neutral red uptake | – | – | – | –
5 | COc1ccccc1CNCCc1cc(OC)c(OC)c(OC)c1 [Mescaline-NBOMe, 3,4,5-Trimethoxy-N-(2-methoxybenzyl)-β-phenethylamine] | no significant changes in resazurin reduction | small but significant decrease in resazurin reduction | small but significant decrease in neutral red uptake | significant decrease in the neutral red uptake | 2.853 | 3.666 | 98.25 | 476 µM | 2.774 | 2.524 | 94.72 | 677 µM | significantly increased the cytotoxicity | no significant changes in resazurin reduction | significant decrease in neutral red uptake | significantly increased the cytotoxicity | – | – | significant increase in cell viability
6 | COc1cc(CCNCc2ccccc2OC)c(OC)cc1Br [25B-NBOMe, 4-Bromo-2,5-dimethoxy-N-(2-methoxybenzyl)-β-phenethylamine] | significant decrease in the cells’ metabolic capacity | small but significant decrease in resazurin reduction | – | significant decrease in the neutral red uptake | 4.279 | 2.442 | ≈100 | 34.7 µM | 6.827 | 4.464 | 80.62 | 58.4 µM | significant increase in cell viability | – | – | – | – | – | –

— paper PMC10458253, “Unraveling the In Vitro Toxicity Profile of Psychedelic 2C Phenethylamines and Their N-Benzylphenethylamine (NBOMe) Analogues” (Pharmaceuticals, 2023)
